Read-outs that look alike come from different tables or passages of the source. Some results are limits rather than exact numbers.

3 compounds from patent publication US20140128357A1, “METHODS OF PRODUCING AND USING BRASSINOSTEROIDS TO PROMOTE GROWTH, REPAIR AND MAINTENANCE OF SKELETAL MUSCLE AND SKIN” (Rutgers University, priority 2010, published 2014) can be followed below.

The test system of data set [1] is NIH 3T3 murine fibroblast cell line. The data set is described as follows: Cytotoxicity, MTT assay in 3T3 fibroblasts. It is filed as cell-based, mouse. On the procedure: FIG. 9. Cell survival curves as measured by MTT assay for brassinosteroids 1-9 against the murine fibroblast cell line NIH-3T3. Cells were incubated with various concentrations of brassinosteroids (0.3-30 μM) for 24 h at 37° C. The mean absorbance of the control cells represented 100% cell proliferation, and the mean absorbance of treated cells was related to control values to determine sensitivity. Error bars represent standard error (n=6) from mean cell proliferation as determined by repeated experiments.
In various aspects, cell viability is measured and the effects of doses of compound and test reagents are tested in cell lines. In some aspects, cell viability was measured by the MTT (3-(4,5-Dimethylthiazol-2-yl)-2,5-diphenyltetrazolium bromide) assay in triplicate (Mosmann et al., J. Immunol. Methods 65:55-63, 1983) and quantified spectrophotometrically at 550 nm using a microplate reader (Molecular Devices, Sunnyvale, Calif.).
3T3 fibroblasts were seeded in a 96-well flat bottom plate at a density of 1×10^4 cells/well. Cell viability was measured by an MTT (3-(4,5-Dimethylthiazol-2-yl)-2,5-diphenyltetrazolium bromide) assay in triplicate (0.3-30 μM of test substance for […]) essentially as described by Mosmann (J. Immunol. Methods 65, 55-63, 1983) and quantified spectrophotometrically at 550 nm using a microplate reader (Molecular Devices, Sunnyvale, Calif.). […] For cell proliferation studies, cells were treated in triplicate with 0.1-10 μM of test substance for 24 h and assayed using a BrdU (5-bromo-2′-deoxyuridine) kit from Amersham (Uppsala, Sweden).
A general note: Tetrazolium assays rely on reduction of a dye to a coloured formazan, in cell work by metabolically active cells.

Data set [2] relates to 3T3 Swiss fibroblast monolayers. The experiment in a line: Scratch wound closure in vitro. Format: cell-based, mouse. As to conditions: for Scratch wound closure at 5 μM, % of control: 12 h (Table 6); for Wound Closure (% over control): 10 μM, 12 h (Table 4). The protocol: 3T3 fibroblasts were seeded into 24-well dishes at a concentration of 3×10^5 cells/ml and cultured to nearly confluent cell monolayers. On the day of the experiment, a linear wound was generated in the monolayer with a sterile 100 μl plastic pipette tip and any cellular debris was removed by washing cells once with sterile PBS. Fresh DMEM medium containing vehicle (0.1% ethanol), positive control (0.5% FBS), or various concentrations of the fractions, sub-fractions or pure compounds was added to a set of 3 wells per dose and incubated for 12 h at 37° C. with 5% CO2. Cells were then visualized with 20 μl of 10% methylene blue in PBS for 5 min. Three representative images of the scratched areas from each well were photographed at 0 and 12 h to estimate the scratch wound closure. Images were analyzed using ImageJ program (NIH, Bethesda, Md.) and % wound closure was calculated relative to vehicle control and was reported as wound closure % over control (Table 4). 3T3 Swiss fibroblast were seeded into 24-well tissue culture at a concentration of 3×10^5 cells/ml and cultured to nearly confluent cell monolayers. Then, a linear wound was generated in the monolayer with a sterile 100 μl plastic pipette tip. Any cellular debris was removed by washing with PBS. DMEM medium with vehicle (0.1% ethanol), FBS (1%, positive control), or various concentrations of brassinosteroids were added to a set of 3 wells per dose and incubated for 12 h at 37° C. with 5% CO2. Cells were visualized in 10% methylene blue for 5 minutes. Three representative images from each well of the scratched areas under each condition were photographed to estimate the relative migration of cells at 0 and 12 h post-treatment. Data were analyzed using ImageJ software available online from the National Institutes of Health (rsbweb.nih.gov/ij/) by calculating the percentage of scratch closure at each dose point relative to control.

The subject of data set [3] is AKT (Ser473) phosphorylation in L6 myotubes. The data set is described as follows: AKT (Ser473) phosphorylation, Western blot. Format: cell-based, rat. The settings on record: for activation of AKT: after 1 h. The protocol:
In some aspects, Western blot analyses were carried out. Fully differentiated L6 myotubes were cultured as described above, and whole cell extracts were prepared in ice-cold RIPA buffer supplemented with 10 mM sodium fluoride, 2 mM sodium orthovanadate, 1 mM PMSF, and protease inhibitor cocktail (Sigma) and centrifuged at 12,000 g for 20 min at 4° C. Equal amounts of protein (50 μg) from the supernatants were separated on 10% SDS polyacrylamide gels and blotted onto the nitrocellulose membrane. Western blot detection was carried out with monoclonal phospho-AKT (Ser473) antibodies according to the manufacturer's instructions (Cell Signaling Technology, Danvers, Mass.). After being washed, the blots were incubated with an anti-rabbit peroxidase-labeled secondary antibody and visualized using ECL Western Blotting Detection Reagent (GE Healthcare, Piscataway, N.J.). After being stripped, the same blots were probed with total AKT antibodies to serve as loading controls.

For data set [4], the system named is orchiectomized (ORX) Wistar rats. Format: in vivo, rat. As to conditions: for Glans penis weight: listed as HB. On the procedure: Protocol 3: Four-week-old sham-operated (sham, n=6) or orchiectomized (ORX, n=24) Wistar rats (Charles River Laboratories, MA) were subject to a 10-d Hershberger assay (surgically castrated peri-pubertal adult model) under the following experimental conditions: sham, ORX (vehicle), ORX (20 mg/kg HB orally), ORX (60 mg/kg HB orally), and ORX (0.4 mg/kg testosterone propionate subcutaneously, serving as a positive control for the assay). All procedures and measurements followed protocol 1, except no body composition measurements were taken. Limb grip strength was measured for control animals and animals receiving 60 mg/kg HB using a digital force gauge (Wagner Instruments model FDV5) by Product Safety Laboratories (Dayton, N.J.). After the rats were allowed to grip the screen with paws, the animals were quickly pulled until the paws released from the screen, and the required release force was recorded. Three trials on each animal were performed in triplicate, and significance was determined using Student's t test (p<0.05). In addition to the gastrocnemius muscle, androgen-sensitive tissues (ventral prostate, seminal vesicles, bulbocavernosus/levator ani muscle complex, glans penis, and Cowper's gland) were dissected out and weighed.
The muscle samples for histochemical analysis were taken from the middle section of the mixed-fiber gastrocnemius muscle of the castrated animals treated according to protocol 4 (described herein above) to allow for the observation of differences in fiber type distribution and cross-section area associated with ORX and HB treatments. Serial transverse cryosections (10 μm) were prepared from each muscle and were analyzed for myofibrillar adenosine triphosphatase (mATPase) histochemistry after alkaline (pH=9.5) preincubation. Fiber cross-section area and enzyme activity levels were determined from digitized images of the muscle cross-sections that were stored as gray-level pictures using ImageJ software (National Institutes of Health, Bethesda, Md.). […]

The test system of a further data set is L6 rat myotubes. The data set is described as follows: Protein degradation, release of acid-soluble [3H]-phenylalanine. Format: cell-based. As to conditions: for decrease in protein degradation vs control levels: 1 μM, 4 h.
Where [5] appears, read: ORX rats, 20 mg/kg oral daily 10 d.
[6] abbreviates: ORX rats, 60 mg/kg oral daily 10 d.
Where [7] appears, read: ORX rats, 60 mg/kg oral per day 10 days.

`CC[C@@H](C(C)C)[C@H](O)[C@@H](O)[C@@H](C)[C@H]1CC[C@H]2[C@@H]3COC(=O)[C@H]4C[C@H](O)[C@H](O)C[C@]4(C)[C@H]3CC[C@]12C` [Compound 1, (22S,23S,24S)-2α,3α,22,23-tetrahydroxy-24 ethyl-β-homo-7-oxo-5α-cholestane-6-one]: the IC50 in data set [1] (3T3 mouse fibroblasts, MTT, 0.3-30 μM, read-out: Cell cytotoxicity, IC50) is more than 30 µM. The cytotoxicity in vitro result in data set [1] (tested up to 30 μM) is “no cytotoxicity”. For the same compound, in data set [2], the “Scratch wound closure at 5 μM, % of control” value is reported as 30 ± 4.2 % and the “Wound Closure (% over control)” value is 30.2 ± 11.2 %. The “Scratch wound closure at 5 μM, % of control” value in data set [2] (listed as HB) is recorded as 30±4.2%. In data set [3], the “time to AKT phosphorylation” value was found to be 30 min and the “activation of AKT” value was “significant activation of AKT”. Further, in data set [3] (3 μM, 1 h), the “stimulation of Ser473 phosphorylation of AKT” value is “up to 3 fold”. The “increase in gastrocnemius muscle mass” value in data set [4] (ORX rats, 20 mg/kg oral 10 d) stood at 13.8%. Further, in data set [4] (setting [5]), the Bulbocavernosus/levator ani weight is recorded as 109.2 ± 8.6 mg, the “Cowper's gland weight” value is reported as 11.2 ± 0.7 mg, the Seminal vesicles weight was determined as 37.3 ± 3.5 mg and the Ventral prostate weight is on record as 26.0 ± 2.5 mg. The compound also displayed a Glans penis weight in data set [4] (ORX rats, 20 mg/kg oral daily 10 d, 20 mg/kg) of 55.3 ± 1.7 mg. In addition, the “increase in gastrocnemius muscle mass” value in data set [4] (ORX rats, 60 mg/kg oral 10 d) is 10.3%. Further, in data set [4] (setting [6]), the Bulbocavernosus/levator ani weight came out at 137.7 ± 9.9 mg, the “Cowper's gland weight” value is listed as 12.5 ± 1.1 mg, the Seminal vesicles weight amounted to 34.7 ± 3.3 mg and the Ventral prostate weight is listed as 23.0 ± 2.4 mg. The compound further had a Glans penis weight in data set [4] (ORX rats, 60 mg/kg oral daily 10 d, 60 mg/kg) of 59.6 ± 1.6 mg. In addition, in data set [4] (setting [7]), the “Change in grip strength of lower extremities” value was 0.0851 ± 0.0197 kg and the “change in grip strength for front limbs” value is 0.2711 ± 0.0660 kg. In addition, the “increase in total number of type IIa and type IIb fibers” value in data set [4] (gastrocnemius, 20 or 60 mg/kg per day 10 d, independent of dose) is given as “approximately 60%”. Besides, the “androgenic activity in the Hershberger assay” value in data set [4] (rat, in vivo) is “very low androgenic activity”. The “decrease in protein degradation vs control levels” value in the data set on L6 rat myotubes is 8.2±0.6%. For the same compound, in the data set on L6 rat myotubes (3 μM HB, 1-4 h study), the “time at which suppression of protein degradation reached a plateau” value amounted to 3 h.
On to `CC[C@@H](C(C)C)[C@H](O)[C@@H](O)[C@@H](C)[C@H]1CC[C@H]2[C@@H]3CC(=O)[C@H]4C[C@H](O)[C@H](O)C[C@]4(C)[C@H]3CC[C@]12C` [Compound 2, (22S,23S,24S)-2α,3α, 22,23-tetrahydroxy-24-ethyl-5α-cholestan-6-one], for which, in data set [2], the “Scratch wound closure at 5 μM, % of control” value amounted to 32.9 ± 4.1 % and the “Wound Closure (% over control)” value stood at 32.9 ± 14.1 %. Also, the “activation of AKT” value in data set [3] is on record as “significant activation of AKT”. Further, the “decrease in protein degradation vs control levels” value with L6 rat myotubes is given as 8.7±1.7%. The “concentration at which inhibition of protein degradation reached a plateau” value in the data set with L6 rat myotubes (4 h dose response) was determined as 10 µM.
`CC[C@@H](C(C)C)[C@H](O)[C@@H](O)[C@@H](C)[C@H]1CC[C@H]2[C@@H]3CC(=O)N[C@H]4C[C@H](O)[C@H](O)C[C@]4(C)[C@H]3CC[C@]12C` [Compound 5, (22S,23S,24S)-2α,3α-22,23-tetrahydroxy-24-ethyl-B-homo-6-aza-5α-cholestan-7-one]: the IC50 in data set [1] is 12.5 µM; in data set [1] (3T3/NIH murine fibroblasts, MTT, 24 h (FIG. 9), read-out: half-maximal inhibitory concentration (IC50), cell proliferation), 12.5 µM. The “Scratch wound closure at 5 μM, % of control” value in data set [2] is reported as 13.0 ± 0.7%. Also, the “fibroblast migration activity in words” value in data set [2] (0.1-10 μM, 12 h) was “no effect on fibroblast migration”.
